Results from ChEMBL document CHEMBL4342418, “1,2,3-Triazole-containing hybrids as potential anticancer agents: Current developments, action mechanisms and structure-activity relationships” (Eur J Med Chem, 2019).
pIC50: −log10 of the molar value.

Assays:
[1] = system: HepG2; test: Potency index, ratio of foretinib IC50 to test compound IC50 for antiproliferative activity against human HepG2 cells; assay type: functional
[2] = system: A549; test: Potency index, ratio of foretinib IC50 to test compound IC50 for antiproliferative activity against human A549 cells; assay type: functional
[3] = system: MCF7; test: Potency index, ratio of foretinib IC50 to test compound IC50 for antiproliferative activity against human MCF7 cells; assay type: functional
[4] = system: MCF7; test: Antiproliferative activity against human MCF7 cells assessed as reduction in cell viability after 72 hrs by MTT assay; assay type: functional, cell-based; details: MCF7, 72 h
[5] = system: A549; test: Antiproliferative activity against human A549 cells assessed as reduction in cell viability after 72 hrs by MTT assay; assay type: functional, cell-based; details: A549, 72 h
[6] = system: HepG2; test: Antiproliferative activity against human HepG2 cells assessed as reduction in cell viability after 72 hrs by MTT assay; assay type: functional, cell-based; details: HepG2, 72 h
[7] = system: NCI-H23; test: cells; assay type: functional, cell-based; details: Homo sapiens, NCI-H23, 48 h
Description: Antiproliferative activity against human NCI-H23 cells assessed as reduction in cell viability after 48 hrs by MTT assay

[8] = system: ASPC1; test: cells; assay type: functional, cell-based; details: Homo sapiens, ASPC1, 48 h
Description: Antiproliferative activity against human Aspc-1 cells assessed as reduction in cell viability after 48 hrs by MTT assay

[9] = system: SW-620; test: cells; assay type: functional, cell-based; details: Homo sapiens, SW-620, 48 h
Description: Antiproliferative activity against human SW620 cells assessed as reduction in cell viability after 48 hrs by MTT assay

[10] = system: PC-3; test: cells; assay type: functional, cell-based; details: Homo sapiens, PC-3, 48 h
Description: Antiproliferative activity against human PC3 cells assessed as reduction in cell viability after 48 hrs by MTT assay

[11] = Potency index, ratio of temozolomide IC50 to test compound IC50 for antiproliferative activity against human GBM2 cells; assay type: functional
[12] = Antiproliferative activity against human GBM95 cells assessed as reduction in cell viability after 72 hrs by MTT assay; assay type: functional, cell-based
[13] = Antiproliferative activity against human GBM2 cells assessed as reduction in cell viability after 72 hrs by MTT assay; assay type: functional, cell-based; details: GBM2, 72 h
[14] = Potency index, ratio of temozolomide IC50 to test compound IC50 for antiproliferative activity against human GBM95 cells; assay type: functional
[15] = system: HeLa; test: Antiproliferative activity against human HeLa cells by MTT assay; assay type: functional, cell-based
[16] = system: A549; test: cells; assay type: functional, cell-based; details: Homo sapiens
Description: Antiproliferative activity against human A549 cells by MTT assay

[17] = system: MCF7; test: cells; assay type: functional, cell-based; details: Homo sapiens
Description: Antiproliferative activity against human MCF7 cells by MTT assay

[18] = system: DU-145; test: Antiproliferative activity against human DU145 cells by MTT assay; assay type: functional, cell-based
[19] = system: B16; test: Antiproliferative activity against mouse B16 cells by MTT assay; assay type: functional, cell-based
[20] = system: SK-OV-3; test: Antiproliferative activity against human SKOV3 cells by SRB assay; assay type: functional, cell-based
[21] = system: OVCAR-3; test: Antiproliferative activity against human OVCAR3 cells by SRB assay; assay type: functional
[22] = system: Caov-3 cell line; test: Antiproliferative activity against human Caov3 cells by SRB assay; assay type: functional
[23] = system: SNB-19; test: Antiproliferative activity against human SNB19 cells assessed as reduction in cell viability after 48 hrs by MTT assay; assay type: functional, cell-based; details: SNB-19, 48 h
[24] = system: T47D; test: Antiproliferative activity against human T47D cells assessed as reduction in cell viability after 48 hrs by MTT assay; assay type: functional, cell-based
[25] = system: MCF7; test: Antiproliferative activity against human MCF7 cells assessed as reduction in cell viability after 48 hrs by MTT assay; assay type: functional, cell-based; details: MCF7, 48 h
[26] = system: IMR-32; test: Antiproliferative activity against human IMR32 cells by SRB assay; assay type: functional
[27] = system: A549; test: Growth inhibition in human A549 cells after 48 hrs by SRB assay; assay type: functional; details: A549, 48 h
[28] = system: MDA-MB-231; test: cells; details: Homo sapiens
Description: Antiproliferative activity against human MDA-MB-231 cells assessed as reduction in cell viability preincubated for 24 hrs under hypoxia condition further incubated for 72 hrs under normaxic condition by MTT assay

[29] = system: HCT-116; test: Antiproliferative activity against human HCT116 cells assessed as reduction in cell viability after 48 hrs by MTT assay; assay type: functional, cell-based; details: HCT-116, 48 h
[30] = system: MDA-MB-231; test: Antiproliferative activity against human MDA-MB-231 cells assessed as reduction in cell viability after 48 hrs by MTT assay; assay type: functional, cell-based; details: MDA-MB-231, 48 h
[31] = system: HeLa; test: Antiproliferative activity against human HeLa cells by SRB assay; assay type: functional, cell-based
[32] = system: SiHa; test: Growth inhibition in human SiHa cells after 48 hrs by SRB assay; assay type: functional
[33] = system: IMR-32; test: Growth inhibition in human IMR32 cells after 48 hrs by SRB assay; assay type: functional; details: IMR-32, 48 h
[34] = system: MDA-MB-231; test: Antiproliferative activity against human MDA-MB-231 cells by SRB assay; assay type: functional
[35] = system: HT-29; test: Antiproliferative activity against human HT-29 cells assessed as reduction in cell viability after 72 hrs by MTT assay; assay type: functional, cell-based; details: HT-29, 72 h
[36] = system: Caco-2; test: Antiproliferative activity against human Caco2 cells assessed as reduction in cell viability after 48 hrs by MTT assay; assay type: functional, cell-based; details: Caco-2, 48 h
[37] = Antiproliferative activity against human MiaPaCa cells by SRB assay; assay type: functional; details: MIA PaCa-2
[38] = system: A549; test: Antiproliferative activity against human A549 cells assessed as reduction in cell viability after 24 hrs by MTT assay; assay type: functional, cell-based; details: A549, 24 h
[39] = system: IMR-32; test: Antiproliferative activity against human IMR32 cells assessed as reduction in cell viability after 72 hrs by MTT assay; assay type: functional, cell-based; details: IMR-32, 72 h
[40] = system: PC-3; test: Antiproliferative activity against human PC3 cells assessed as reduction in cell viability after 24 hrs by MTT assay; assay type: functional, cell-based; details: PC-3, 24 h
[41] = system: DU-145; test: Growth inhibition in human DU145 cells after 48 hrs by SRB assay; assay type: functional; details: DU-145, 48 h
[42] = system: COLO 205; test: Antiproliferative activity against human COLO205 cells assessed as reduction in cell viability after 24 hrs by MTT assay; assay type: functional, cell-based; details: COLO 205, 24 h
[43] = system: K562; test: Antiproliferative activity against human K562 cells assessed as reduction in cell viability after 24 hrs by MTT assay; assay type: functional, cell-based; details: K562, 24 h
[44] = system: MDA-MB-231; test: Antiproliferative activity against human MDA-MB-231 cells assessed as reduction in cell viability after 24 hrs by MTT assay; assay type: functional, cell-based; details: MDA-MB-231, 24 h
[45] = system: HeLa; test: Antiproliferative activity against human HeLa cells assessed as reduction in cell viability after 48 hrs by MTT assay; assay type: functional, cell-based
[46] = system: MDA-MB-231; test: Antiproliferative activity against human MDA-MB-231 cells assessed as reduction in cell viability after 72 hrs by MTT assay; assay type: functional, cell-based; details: MDA-MB-231, 72 h
[47] = system: MOLT-4; test: Antiproliferative activity against human MOLT4 cells assessed as reduction in cell viability after 72 hrs by MTT assay; assay type: functional, cell-based; details: MOLT-4, 72 h
[48] = system: MDA-MB-231; test: Growth inhibition in human MDA-MB-231 cells after 48 hrs by SRB assay; assay type: functional; details: MDA-MB-231, 48 h
[49] = system: U-87 MG; test: Antiproliferative activity against human U87 cells assessed as reduction in cell viability after 72 hrs by MTT assay; assay type: functional, cell-based, U-87MG ATCC
[50] = system: PANC-1; test: Growth inhibition in human PANC1 cells after 48 hrs by SRB assay; assay type: functional; details: PANC-1, 48 h
[51] = system: A-431; test: Antiproliferative activity against human A431 cells assessed as reduction in cell viability after 24 hrs by MTT assay; assay type: functional, cell-based; details: A-431, 24 h
[52] = system: NIH3T3; test: Antiproliferative activity against mouse NIH/3T3 cells by MTT assay; assay type: functional, cell-based
[53] = system: HepG2; test: Antiproliferative activity against human HepG2 cells by MTT assay; assay type: functional, cell-based
[54] = system: PC-3; test: Antiproliferative activity against human PC3 cells by MTT assay; assay type: functional, cell-based

Structure (SMILES): O=C(Nc1ccc(Oc2ncnc3ccsc23)cc1)c1nnn(-c2ccc(Cl)cc2)c1C(F)(F)F
- Ratio IC50 [1]: 3.6 - 5.2
- Ratio IC50 [2]: 3.6 - 5.2
- Ratio IC50 [3]: 3.6 - 5.2
- pIC50 [4]: 6.00 to 6.30
- pIC50 [5]: 6.00 to 6.30
- pIC50 [6]: 6.00 to 6.30

Structure (SMILES): Cc1ccc2c(c1)/C(=N\O)C(=O)N2Cc1cn(CCCC(=O)NO)nn1
- pIC50 [7]: 6.12 to 6.31
- pIC50 [8]: 6.12 to 6.31
- pIC50 [9]: 6.12 to 6.31
- pIC50 [10]: 6.12 to 6.31

Structure (SMILES): O=Cc1ccccc1-n1cc(COc2cccc(OCc3cn(-c4ccccc4C=O)nn3)c2)nn1
- Ratio IC50 [11]: 37.3
- pIC50 [12]: 4.42
- pIC50 [13]: 4.52
- Ratio IC50 [14]: 16.3

Structure (SMILES): CCc1ccc(-c2cn(CCNC3=C(C)C(=O)c4ccccc4C3=O)nn2)cc1
- pIC50 [15]: 4.58 to 5.10
- pIC50 [16]: 4.58 to 5.10
- pIC50 [17]: 4.58 to 5.10
- pIC50 [18]: 4.58 to 5.10
- pIC50 [19]: 4.58 to 5.10

Structure (SMILES): COc1cc(O)c2c(=O)cc(-c3ccc(OCc4cn(-c5ccccc5F)nn4)cc3)oc2c1
- GI50 [20]: 10 to 20 µM
- GI50 [21]: 10 to 20 µM
- GI50 [22]: 10 to 20 µM

Structure (SMILES): C=C(C)[C@@H]1CC[C@]2(OC(=O)c3cn(Cc4ccc(F)cc4)nn3)CC[C@]3(C)[C@H](CC[C@@H]4[C@@]5(C)CC[C@H](OC(=O)c6cn(Cc7ccc(F)cc7)nn6)C(C)(C)[C@@H]5CC[C@]43C)[C@@H]12
- pIC50 [23]: 7.05 to 7.30
- pIC50 [24]: 7.05 to 7.30
- pIC50 [25]: 7.05 to 7.30

Structure (SMILES): COc1cccc2c1C(=O)c1c(O)c3c(c(O)c1C2=O)C[C@@](O)(C(=O)CO)C[C@@H]3O[C@H]1C[C@H](N)[C@H](O)[C@H](C)O1 [DOXORUBICIN]
- GI50 [26]: 0.023 to 0.097 µM
- pIC50 [16]: 5.48
- GI50 [27]: < 0.01 µM
- pIC50 [28]: 6.22
- pIC50 [29]: 5.00 to 6.26
- pIC50 [30]: 5.33 to 6.26
- pIC50 [24]: 5.00 to 6.00
- GI50 [31]: 0.023 to 0.097 µM
- GI50 [32]: < 0.01 µM
- GI50 [33]: < 0.01 µM
- GI50 [34]: 0.023 to 0.097 µM
- pIC50 [35]: 6.47 to 7.82
- pIC50 [36]: 5.00 to 6.00
- pIC50 [25]: 5.00 to 6.00
- GI50 [37]: 0.023 to 0.097 µM
- pIC50 [38]: 4.92 to 5.84
- pIC50 [39]: 6.37 to 7.10
- pIC50 [40]: 4.92 to 5.84
- GI50 [41]: < 0.01 µM
- pIC50 [4]: 6.47 to 7.82
- pIC50 [42]: 4.92 to 5.84
- pIC50 [43]: 4.92 to 5.84
- pIC50 [44]: 4.92 to 5.84
- pIC50 [45]: 5.33 to 6.26
- pIC50 [46]: 6.37 to 7.10
- pIC50 [47]: 6.47 to 7.82
- GI50 [48]: < 0.01 µM
- pIC50 [49]: 6.37 to 7.10
- GI50 [50]: < 0.01 µM
- pIC50 [51]: 4.92 to 5.84

Structure (SMILES): COc1cc([C@@H]2c3cc4c(cc3[C@H](O)[C@H]3COC(=O)[C@H]23)OCO4)cc(OC)c1OC [PODOFILOX]
- pIC50 [15]: 5.18 to 5.51
- pIC50 [16]: 4.46 to 5.51
- pIC50 [17]: 4.46 to 5.51
- pIC50 [52]: 5.18 to 5.51
- pIC50 [53]: 5.18 to 5.51
- pIC50 [54]: 4.46 to 5.51
- pIC50 [18]: 5.18 to 5.51
